Experiments:
[1] = tested on: HCV; settings: extended dosing of the combination regimens with interferon and ribavirin; cited from earlier work
[2] = molecular target: HCV NS5B genotype 1b (Con1) (Hepatitis C virus genotype 1b (isolate Con1) (HCV), UniProt Q9WMX2); test: HCV NS5B RdRp enzyme assay (1b enzyme); assay type: biochemical; settings: genotype 1b NS5B enzyme
Description: HCV NS5B RdRp Cloning, Expression, and Purification.
The cDNA encoding NS5B proteins of HCV genotype 1b (Con1), a genotype 1b variant with amino acid 316 mutated from cysteine to asparagine, and genotype 2a (JFH-1), were cloned into the pET21a expression vector. Each untagged protein was expressed with an 18 amino acid C-terminal truncation to enhance the solubility. The E. coli competent cell line BL21(DE3) was used for expression of the protein. Cultures were grown at 37° C. for ˜4 hours until the cultures reached an optical density of 2.0 at 600 nm. The cultures were cooled to 20° C. and induced with 1 mM IPTG. Fresh ampicillin was added to a final concentration of 50 μg/mL and the cells were grown overnight at 20° C.
The lysis buffer consisted of 20 mM Tris-HCl, pH 7.4, 500 mM NaCl, 0.5% triton X-100, 1 mM DTT, 1 mM EDTA, 20% glycerol, 0.5 mg/mL lysozyme, 10 mM MgCl2, 15 ug/mL deoxyribonuclease I, and Complete TM protease inhibitor tablets (Roche). After addition of the lysis buffer, frozen cell pellets were resuspended using a tissue homogenizer. To reduce the viscosity of the sample, aliquots of the lysate were sonicated on ice using a microtip attached to a Branson sonicator. The sonicated lysate was centrifuged at 100,000×g for 30 minutes at 4° C. and filtered through a 0.2 μm filter unit (Corning).
The protein was purified using two sequential chromatography steps: Heparin sepharose CL-6B and polyU sepharose 4B. The chromatography buffers were identical to the lysis buffer but contained no lysozyme, deoxyribonuclease I, MgCl2 or protease inhibitor and the NaCl concentration of the buffer was adjusted according to the requirements for charging the protein onto the column. Each column was eluted with a NaCl gradient which varied in length from 5-50 column volumes depending on the column type. […] The enzyme was aliquoted and stored at −80° C.
HCV NS5B RdRp Enzyme Assay.
An on-bead solid phase homogeneous assay was used in a 384-well format to assess NS5B inhibitors (WangY-K, Rigat K, Roberts S, and Gao M (2006) Anal Biochem, 359: 106-111). The biotinylated oligo dT12 primer was captured on streptavidin-coupled imaging beads (GE, RPNQ0261) by mixing primer and beads in 1× buffer and incubating at room temperature for three hours. Unbound primer was removed after centrifugation. The primer-bound beads were resuspended in 3× reaction mix (20 mM Hepes buffer, pH 7.5, dT primer coupled beads, poly A template, ^3H-UTP, and RNAse inhibitor (Promega N2515)). Compounds were serially diluted 1:3 in DMSO and aliquoted into assay plates. Equal volumes (5 μL) of water, 3× reaction mix, and enzyme in 3× assay buffer (60 mM Hepes buffer, pH 7.5, 7.5 mM MgCl2, 7.5 mM KCl, 3 mM DTT, 0.03 mg/mL BSA, 6% glycerol) were added to the diluted compound on the assay plate. Final concentration of components in 384-well assay: 0.36 nM template, 15 nM primer, 0.29 μM ^3H-UTP (0.3 μCi), 1.6 U/4 RNAse inhibitor, 7 nM NS5B enzyme, 0.01 mg/mL BSA, 1 mM DTT, and 0.33 μg/μL beads, 20 mM Hepes buffer, pH 7.5, 2.5 mM MgCl2, 2.5 mM KCl, and 0.1% DMSO.
Reactions were allowed to proceed for 24 hours at 30° C. and terminated by the addition of 50 mM EDTA (5 μL). After incubating for at least 15 minutes, plates were read on an Amersham LEADseeker multimodality imaging system.
IC50 values for compounds were determined using ten different [I]. IC50 values were calculated from the inhibition using the four-parameter logistic formula y=A+((B−A)/(1+((C/x)^D))), where A and B denote minimal and maximal % inhibition, respectively, C is the IC50, D is hill slope and x represents compound concentration.

[3] = tested on: genotype 1b (Con-1) HCV replicon in Huh-7 cells; test: HCV replicon luciferase assay (1b replicon); assay type: cell-based; settings: Hepatitis C virus, 72 h; genotype 1b replicon, Huh-7, Renilla luciferase, 3 days incubation; read-out: EC50
Description: The cell lines used to evaluate compounds consist of a human hepatocyte derived cell line (Huh-7) that constitutively expresses a genotype 1b (Con-1) HCV replicon or a genotype 1b (Con-1) HCV replicon with an asparagine replacing the cysteine at amino acid 316, or a genotype 2a (JFH-1) replicon, containing a Renilla luciferase reporter gene. These cells were maintained in Dulbecco's modified Eagle medium (DMEM) containing 10% FBS, 100 U/mL penicillin/streptomycin and 1.0 mg/mL G418.
HCV Replicon Luciferase Assay.
After 3 days incubation at 37° C., cells were analyzed for Renilla Luciferase activity using the EnduRen substrate (Promega cat #E6485) according to the manufacturer's directions. Briefly, the EnduRen substrate was diluted in DMEM and then added to the plates to a final concentration of 7.5 μM. The plates were incubated for at least 1 h at 37° C. then read on a Viewlux Imager (PerkinElmer) using a luminescence program.

HCV NS5B genotype 1b (Con1), sequence (Q9WMX2 2420-2992): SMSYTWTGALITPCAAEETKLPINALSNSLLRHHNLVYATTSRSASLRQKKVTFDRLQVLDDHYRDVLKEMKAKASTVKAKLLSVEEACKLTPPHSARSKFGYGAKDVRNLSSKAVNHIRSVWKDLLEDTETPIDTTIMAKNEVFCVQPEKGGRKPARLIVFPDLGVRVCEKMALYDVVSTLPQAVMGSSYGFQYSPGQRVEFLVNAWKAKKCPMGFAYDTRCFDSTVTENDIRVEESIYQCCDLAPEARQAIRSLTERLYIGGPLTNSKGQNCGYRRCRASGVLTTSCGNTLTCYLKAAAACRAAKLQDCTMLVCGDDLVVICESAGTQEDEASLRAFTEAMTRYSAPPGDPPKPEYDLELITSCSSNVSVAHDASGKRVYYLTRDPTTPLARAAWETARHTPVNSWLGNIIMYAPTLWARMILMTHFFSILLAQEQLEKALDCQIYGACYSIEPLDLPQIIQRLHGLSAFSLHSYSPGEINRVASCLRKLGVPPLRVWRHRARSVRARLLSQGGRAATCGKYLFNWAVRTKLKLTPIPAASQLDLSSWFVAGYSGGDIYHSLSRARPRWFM

SMILES	hepatic toxicity [1]	IC50 [2]	EC50 [3]
CNC(=O)c1c(-c2ccc(F)cc2)oc2cc(N(CCO)S(C)(=O)=O)c(C3CC3)cc12 [HCV-796]	hepatic toxicity	–	–
CNC(=O)c1c(-c2ccc(F)cc2)oc2cc(OC(C)C)c(-c3ccc(OC)c(C(=O)NC(C)(C)c4ncon4)c3)cc12 [Example 23, 5-(3-((2-(1,2,4-Oxadiazol-3-yl)propan-2-yl)carbamoyl)-4-methoxyphenyl)-2-(4-fluorophenyl)-6-isopropoxy-N-methylbenzofuran-3-carboxamide]	–	7.14 nM	10 nM
CNC(=O)c1c(-c2ccc(F)cc2)oc2cc(OCC(F)(F)F)c(-c3ccc(OC)c(C(=O)NC4(c5ncccn5)CC4)c3)cc12 [Example 2, 2-(4-Fluorophenyl)-5-(4-methoxy-3-((1-(pyrimidin-2-yl)cyclopropyl)carbamoyl)phenyl)-N-methyl-6-(2,2,2-trifluoroethoxy)benzofuran-3-carboxamide]	–	4.15 nM	6.24 nM
CNC(=O)c1c(-c2ccc(F)cc2)oc2cc(OCC(F)F)c(-c3cccc(C(=O)NC(C)(C)c4ncon4)c3)cc12 [Example 19, 5-(3-((2-(1,2,4-Oxadiazol-3-yl)propan-2-yl)carbamoyl)phenyl)-6-(2,2-difluoroethoxy)-2-(4-fluorophenyl)-N-m ethylbenzofuran-3-carboxamide]	–	4.2 nM	7.41 nM
CNC(=O)c1c(-c2ccc(F)cc2)oc2cc(OCC(C)C)c(-c3ccc(OC)c(C(=O)NC(C)(C)c4ncon4)c3)cc12 [Example 26, 5-(3-((2-(1,2,4-oxadiazol-3-yl)propan-2-yl)carbamoyl)-4-methoxyphenyl)-2-(4-fluorophenyl)-6-isobutoxy-N-methylbenzofuran-3-carboxamide]	–	30 nM	80 nM
CNC(=O)c1c(-c2ccc(F)cc2)oc2cc(OCC(F)(F)F)c(-c3ccc(OC)c(C(=O)NC(C)(C)c4ncon4)c3)cc12 [Example 18, 5-(3-((2-(1,2,4-oxadiazol-3-yl)propan-2-yl)carbamoyl)-4-methoxyphenyl)-2-(4-fluorophenyl)-N-methyl-6-(2,2,2-trifluoroethoxy)benzofuran-3-carboxamide]	–	2.83 nM	2.85 nM
CNC(=O)c1c(-c2ccc(F)cc2)oc2cc(OCC(F)(F)F)c(-c3cnc(OC)c(C(=O)NC4(c5ncccn5)CC4)c3)cc12 [Example 29, 5-(2-(4-Fluorophenyl)-3-(methylcarbamoyl)-6-(2,2,2-trifluoroethoxy)benzofuran-5-yl)-2-methoxy-N-(1-(pyrimidin-2-yl)cyclopropyl)nicotinamide]	–	2.95 nM	4.57 nM
CCOc1cc2oc(-c3ccc(F)cc3)c(C(=O)NC)c2cc1-c1cccc(C(=O)NC(C)(C)c2nc3ccncc3[nH]2)c1 [Example 32, 5-(3-((2-(3H-imidazo[4,5-c]pyridin-2-yl)propan-2-yl)carbamoyl)phenyl)-6-ethoxy-2-(4-fluorophenyl)-N-methylbenzofuran-3-carboxamide]	–	6.01 nM	10 nM
CNC(=O)c1c(-c2ccc(F)cc2)oc2cc(OCC(F)(F)F)c(-c3cccc(C(=O)NC(C)(C)C#N)c3)cc12 [Example 10, 5-(3-((2-Cyanopropan-2-yl)carbamoyl)phenyl)-2-(4-fluorophenyl)-N-methyl-6-(2,2,2-trifluoroethoxy)benzofuran-3-carboxamide]	–	3.02 nM	5.01 nM
CCOc1cc2oc(-c3ccc(F)cc3)c(C(=O)NC)c2cc1-c1cnc(OC)c(C(=O)NC2(c3ncccn3)CC2)c1 [Example 13, 5-(6-Ethoxy-2-(4-fluorophenyl)-3-(methylcarbamoyl)benzofuran-5-yl)-2-methoxy-N-(1-(pyrimidin-2-yl)cyclopropyl)nicotinamide]	–	2.72 nM	3.67 nM
CNC(=O)c1c(-c2ccc(F)cc2)oc2cc(OCCO)c(-c3ccc(OC)c(C(=O)NC(C)(C)c4ncon4)c3)cc12 [Example 34, 5-(3-((2-(1,2,4-Oxadiazol-3-yl)propan-2-yl)carbamoyl)-4-methoxyphenyl)-2-(4-fluorophenyl)-6-(2-hydroxyethoxy)-N-methylbenzofuran-3-carboxamide]	–	3.89 nM	8.31 nM

Source: US10150747B2, “Compounds for the treatment of hepatitis C” (BRISTOL-MYERS SQUIBB COMPANY, priority 2015, dated 2018)
